Where two headings read alike, the source gives them in different places.
Tests used:
[1] = mice; 10 mg/kg oral; ref Sandborn et al., 2020; cited from earlier work
humans = conditions: QD, ref Sandborn et al., 2020, cited from earlier work
[2] = Rat repeat-dose toxicity studies: plasma toxicokinetics; assay type: in vivo; conditions: for AUC(0-t) / Cmax: plasma, po; for AUC(0-t) / Cmax / Mean Cave: last day of dosing; for Cmax: Mean Cmax
[3] = Rat EFD study: maternal and fetal plasma toxicokinetics; assay type: in vivo
[4] = maternal rat, 30 and 100 mg/kg/day
[5] = maternal rat, GD 17, 1000 mg/kg/day

For `Cc1cc(Nc2cc3ncccc3c(N[C@@H]3C[C@H]4CC[C@@H](C3)N4CCC#N)n2)n[nH]1` [izencitinib, Izencitinib], the “colon:plasma AUC ratio” value [1] is given as 3883, the “dose up to which well tolerated” value (humans; phase 1b, ulcerative colitis patients) is given as 270 mg and the “dose up to which well tolerated” value (humans; phase 1 single ascending dose) is given as 1000 mg. It also gave an AUC(0-t) ([2]; female, Sprague-Dawley (Crl:CD), rat, 30 mg/kg/day, Mean AUC0–24, rat female, 30 mg/kg/day oral, 26 weeks) of 16.7 ng·h/mL, a Cmax ([2]; female, Sprague-Dawley (Crl:CD), rat, 30 mg/kg/day, rat female, 30 mg/kg/day oral, 26 weeks) of 6.02 ng/mL and an AUC(0-t) ([2]; female, Sprague-Dawley (Crl:CD), rat, 100 mg/kg/day, Mean AUC0–24, rat female, 100 mg/kg/day oral, 26 weeks) of 127 ng·h/mL. It also gave a Cmax ([2]; female, Sprague-Dawley (Crl:CD), rat, 100 mg/kg/day, rat female, 100 mg/kg/day oral, 26 weeks) of 32.5 ng/mL, an AUC(0-t) ([2]; female, Sprague-Dawley (Crl:CD), rat, 1000 mg/kg/day, Mean AUC0–24, rat female, 1000 mg/kg/day oral, 26 weeks) of 453 ng·h/mL and a Cmax ([2]; female, Sprague-Dawley (Crl:CD), rat, 1000 mg/kg/day, rat female, 1000 mg/kg/day oral, 26 weeks) of 96.3 ng/mL. It also gave an AUC(0-t) ([2]; female, Sprague-Dawley, rat, 30 mg/kg/day, Mean AUC0–24, rat female, 30 mg/kg/day oral, 4 weeks) of 25.7 ng·h/mL, an AUC(0-t) ([2]; female, Sprague-Dawley, rat, 30 mg/kg/day, Mean AUC0–24, rat female, 30 mg/kg/day oral, 13 weeks) of 54.6 ng·h/mL and an AUC(0-t) ([2]; female, Sprague-Dawley, rat, 100 mg/kg/day, Mean AUC0–24, rat female, 100 mg/kg/day oral, 4 weeks) of 70.5 ng·h/mL. For the same molecule, the AUC(0-t) ([2]; female, Sprague-Dawley, rat, 100 mg/kg/day, Mean AUC0–24, rat female, 100 mg/kg/day oral, 13 weeks) was 227 ng·h/mL, the AUC(0-t) ([2]; female, Sprague-Dawley, rat, 1000 mg/kg/day, Mean AUC0–24, rat female, 1000 mg/kg/day oral, 4 weeks) was 384 ng·h/mL and the AUC(0-t) ([2]; male, Sprague-Dawley (Crl:CD), rat, 30 mg/kg/day, Mean AUC0–24, rat male, 30 mg/kg/day oral, 26 weeks) was 34.6 ng·h/mL. It also gave a Cmax ([2]; male, Sprague-Dawley (Crl:CD), rat, 30 mg/kg/day, rat male, 30 mg/kg/day oral, 26 weeks) of 4.52 ng/mL, an AUC(0-t) ([2]; male, Sprague-Dawley (Crl:CD), rat, 100 mg/kg/day, Mean AUC0–24, rat male, 100 mg/kg/day oral, 26 weeks) of 95.7 ng·h/mL and a Cmax ([2]; male, Sprague-Dawley (Crl:CD), rat, 100 mg/kg/day, rat male, 100 mg/kg/day oral, 26 weeks) of 15.8 ng/mL. The AUC(0-t) ([2]; male, Sprague-Dawley (Crl:CD), rat, 1000 mg/kg/day, Mean AUC0–24, rat male, 1000 mg/kg/day oral, 26 weeks) was 384 ng·h/mL, the Cmax ([2]; male, Sprague-Dawley (Crl:CD), rat, 1000 mg/kg/day, rat male, 1000 mg/kg/day oral, 26 weeks) was 60.6 ng/mL and the AUC(0-t) ([2]; male, Sprague-Dawley, rat, 30 mg/kg/day, Mean AUC0–24, rat male, 30 mg/kg/day oral, 4 weeks) was 23.4 ng·h/mL. For the same molecule, the AUC(0-t) ([2]; male, Sprague-Dawley, rat, 30 mg/kg/day, Mean AUC0–24, rat male, 30 mg/kg/day oral, 13 weeks) was 58.2 ng·h/mL, the AUC(0-t) ([2]; male, Sprague-Dawley, rat, 100 mg/kg/day, Mean AUC0–24, rat male, 100 mg/kg/day oral, 4 weeks) was 71.3 ng·h/mL and the AUC(0-t) ([2]; male, Sprague-Dawley, rat, 100 mg/kg/day, Mean AUC0–24, rat male, 100 mg/kg/day oral, 13 weeks) was 131 ng·h/mL. The AUC(0-t) ([2]; male, Sprague-Dawley, rat, 1000 mg/kg/day, Mean AUC0–24, rat male, 1000 mg/kg/day oral, 4 weeks) was 335 ng·h/mL, the AUC(0-t) ([2]; male, Sprague-Dawley, rat, 1000 mg/kg/day, Mean AUC0–24, rat male, 1000 mg/kg/day oral, 13 weeks) was 452 ng·h/mL and the “nonclinical:clinical systemic AUC margin at the NOAEL” value ([2]; rat 26-week study, 1000 mg/kg/day, vs human 300 mg QD) was 8 fold. For the same molecule, the “Mean Cave” value ([2]; rat female, 30 mg/kg/day oral, 4 weeks) was 1.07 ng/mL, the “Mean Cave” value ([2]; rat female, 30 mg/kg/day oral, 13 weeks) was 2.28 ng/mL and the “Mean Cave” value ([2]; rat female, 30 mg/kg/day oral, 26 weeks) was 0.700 ng/mL. The “Mean Cave” value ([2]; rat female, 100 mg/kg/day oral, 4 weeks) was 2.94 ng/mL, the “Mean Cave” value ([2]; rat female, 100 mg/kg/day oral, 13 weeks) was 9.46 ng/mL and the “Mean Cave” value ([2]; rat female, 100 mg/kg/day oral, 26 weeks) was 5.29 ng/mL. For the same molecule, the “Mean Cave” value ([2]; rat female, 1000 mg/kg/day oral, 4 weeks) was 16.0 ng/mL, the “Mean Cave” value ([2]; rat female, 1000 mg/kg/day oral, 13 weeks) was 63.8 ng/mL and the “Mean Cave” value ([2]; rat female, 1000 mg/kg/day oral, 26 weeks) was 18.9 ng/mL. For the same molecule, the “Mean Cave” value ([2]; rat male, 30 mg/kg/day oral, 4 weeks) was 0.975 ng/mL, the “Mean Cave” value ([2]; rat male, 30 mg/kg/day oral, 13 weeks) was 2.43 ng/mL and the “Mean Cave” value ([2]; rat male, 30 mg/kg/day oral, 26 weeks) was 1.44 ng/mL. For the same molecule, the “Mean Cave” value ([2]; rat male, 100 mg/kg/day oral, 4 weeks) was 2.97 ng/mL, the “Mean Cave” value ([2]; rat male, 100 mg/kg/day oral, 13 weeks) was 5.46 ng/mL and the “Mean Cave” value ([2]; rat male, 100 mg/kg/day oral, 26 weeks) was 3.99 ng/mL. The “Mean Cave” value ([2]; rat male, 1000 mg/kg/day oral, 4 weeks) was 14.0 ng/mL, the “Mean Cave” value ([2]; rat male, 1000 mg/kg/day oral, 13 weeks) was 18.8 ng/mL and the “Mean Cave” value ([2]; rat male, 1000 mg/kg/day oral, 26 weeks) was 16.0 ng/mL. For the same molecule, the “plasma Cave:protein-corrected JAK IC50 ratio” value ([2]; rat, 30 mg/kg/day) was less than 1 ×, the “plasma Cave:uncorrected JAK IC50 ratio” value ([2]; rat, 30 mg/kg/day) was less than 1 × and the “plasma concentrations versus uncorrected human JAK IC50 threshold” value ([2]; rat, 100 mg/kg/day) was “only briefly rose above”. For the same molecule, the “plasma Cave:protein-corrected JAK IC50 ratio” value ([2]; rat, 1000 mg/kg/day) was less than 1, the “plasma Cave:uncorrected JAK IC50 ratio” value ([2]; rat, 1000 mg/kg/day) was 1–3 × and the “Cave:protein-corrected IC50 ratio” value [3, 4] was less than 1 ×. For the same molecule, the “Cave:uncorrected IC50 ratio” value [3, 4] was less than 1 ×, the “Mean Cave” value ([3]; maternal rat, GD 6, 30 mg/kg/day oral) was 0.613 ng/mL and the “Mean Cave” value ([3]; maternal rat, GD 6, 100 mg/kg/day oral) was 2.15 ng/mL. The “Mean Cave” value ([3]; maternal rat, GD 6, 1000 mg/kg/day oral) was 16.2 ng/mL, the “Mean Cave” value ([3]; maternal rat, GD 17, 30 mg/kg/day oral) was 0.663 ng/mL and the “Mean Cave” value ([3]; maternal rat, GD 17, 100 mg/kg/day oral) was 2.88 ng/mL. The “plasma Cave:protein-corrected JAK IC50 ratio” value [3, 5] was less than 1 ×, the “plasma Cave:uncorrected JAK IC50 ratio” value [3, 5] was 2 × and the “time at supratherapeutic plasma levels” value [3, 5] was 12 to 15 h. For the same molecule, the “Mean Cave” value ([3]; maternal rat, GD 17, 1000 mg/kg/day oral) was 23.8 ng/mL and the “nonclinical:clinical AUC ratio at the NOAEL” value ([3]; rat EFD study, 1000 mg/kg/day, vs human 300 mg QD) was 10 fold.

Reference: publication PMC8963331 (Toxicological Sciences, 2022)
